Laboratory results reported in patent US12421205B2, “GLP-1 receptor agonist” (HYUNDAI PHARM CO., LTD., priority 2019, dated 2025).

Assays:
[1] = molecular target: T1, hERG (Homo sapiens, UniProt Q12809); test: hERG inhibition test (Predictor hERG Fluorescence Polarization assay kit); type: binding; conditions: probe kit Tracer (fluorescent hERG ligand), hERG % inhibition at 10 uM, relative to E-4031 and solvent control
T1 construct: purchased Invitrogen PV5365
Outline: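 Competitive fluorescence-polarization binding of fluorescent tracer to hERG membrane preparation, 2.5 h at room temperature, mP read at 531/579 nm. % inhibition at 10 uM test compound, scaled between solvent control (0%) and E-4031 (100%).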

[2] = molecular target: T2, human GLP-1 receptor (Homo sapiens, UniProt P43220); test: cAMP activity test (cAMP dynamic HTRF kit) in CHO-K1/GLP-1 receptor-expressing cells; type: cell-based; conditions: cAMP activity, CHO-K1/GLP-1 receptor-expressing cells; read-out: EC50
T2 construct: host or cells: CHO-K1
T2 sequence (P43220 24-463): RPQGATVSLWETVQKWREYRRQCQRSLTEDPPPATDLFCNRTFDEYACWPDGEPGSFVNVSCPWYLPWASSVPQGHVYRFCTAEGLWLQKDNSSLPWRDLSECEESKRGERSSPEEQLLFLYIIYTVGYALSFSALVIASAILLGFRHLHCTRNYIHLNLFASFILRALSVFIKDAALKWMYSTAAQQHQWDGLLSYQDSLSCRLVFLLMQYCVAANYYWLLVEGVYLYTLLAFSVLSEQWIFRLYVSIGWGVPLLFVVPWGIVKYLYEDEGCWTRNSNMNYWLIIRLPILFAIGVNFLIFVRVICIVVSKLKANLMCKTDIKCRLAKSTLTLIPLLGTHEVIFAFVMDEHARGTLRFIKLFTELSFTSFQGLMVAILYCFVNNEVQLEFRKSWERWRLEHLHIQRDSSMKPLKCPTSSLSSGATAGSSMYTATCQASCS
Outline: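 Cells in HBSS with 0.1% BSA, 0.5 mM IBMX and 5 mM HEPES, then lysed; cAMP-d2 and anti-cAMP cryptate added for 3 h. HTRF read-out, where FRET signal is inversely proportional to intracellular cAMP.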

T1 sequence (Q12809 whole entry): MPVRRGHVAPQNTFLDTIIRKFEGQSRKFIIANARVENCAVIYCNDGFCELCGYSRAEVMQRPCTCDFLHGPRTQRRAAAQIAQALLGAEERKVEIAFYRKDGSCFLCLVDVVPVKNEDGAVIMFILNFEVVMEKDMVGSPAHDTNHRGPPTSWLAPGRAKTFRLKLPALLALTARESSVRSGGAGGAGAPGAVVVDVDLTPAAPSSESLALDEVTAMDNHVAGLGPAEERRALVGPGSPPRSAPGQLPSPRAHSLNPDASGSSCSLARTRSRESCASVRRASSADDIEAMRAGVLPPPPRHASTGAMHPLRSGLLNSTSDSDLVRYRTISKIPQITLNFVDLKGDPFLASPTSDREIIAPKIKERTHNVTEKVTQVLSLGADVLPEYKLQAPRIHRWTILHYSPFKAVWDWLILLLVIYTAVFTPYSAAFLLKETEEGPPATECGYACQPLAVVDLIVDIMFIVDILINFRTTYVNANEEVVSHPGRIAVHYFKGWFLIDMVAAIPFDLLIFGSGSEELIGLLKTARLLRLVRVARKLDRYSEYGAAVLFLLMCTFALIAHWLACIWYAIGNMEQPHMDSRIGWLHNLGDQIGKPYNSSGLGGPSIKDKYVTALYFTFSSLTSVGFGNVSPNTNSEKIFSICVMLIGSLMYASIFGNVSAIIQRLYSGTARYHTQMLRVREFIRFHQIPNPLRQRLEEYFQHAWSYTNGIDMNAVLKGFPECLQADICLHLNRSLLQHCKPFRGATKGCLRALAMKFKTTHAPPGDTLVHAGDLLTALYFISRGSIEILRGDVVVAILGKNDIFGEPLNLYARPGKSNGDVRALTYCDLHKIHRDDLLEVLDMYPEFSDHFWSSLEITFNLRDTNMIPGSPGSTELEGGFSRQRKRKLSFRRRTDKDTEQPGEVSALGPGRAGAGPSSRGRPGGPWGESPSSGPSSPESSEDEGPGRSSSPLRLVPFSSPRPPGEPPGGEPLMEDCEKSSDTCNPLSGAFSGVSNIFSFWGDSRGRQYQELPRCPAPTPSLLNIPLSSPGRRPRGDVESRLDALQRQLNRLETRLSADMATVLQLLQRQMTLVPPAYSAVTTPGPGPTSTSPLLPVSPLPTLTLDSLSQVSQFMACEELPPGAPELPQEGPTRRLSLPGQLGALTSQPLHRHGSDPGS

Compound	EC50 [2] [µM]	inhibition at 2.5 h, 10 µM [1] [%]
CCn1cncc1Cn1c(Cc2ccc(-c3cccc(OCc4ccc(Cl)cc4F)n3)cc2F)nc2ccc(C(=O)O)cc21 [Example 72, 2-(4-(6-(4-chloro-2-fluorobenzyloxy)pyridin-2-yl)-2-fluorobenzyl)-1-((1-ethyl-1H-imidazole-5-yl)methyl)-1H-benzo[d]imidazole-6-carboxylic acid]	< 0.0032	-5.75
O=C(O)c1ccc2nc(Cc3ccc(-c4cccc(OCc5ccc(Cl)cc5F)n4)cc3)n(CC3CCCO3)c2c1 (centres unmarked) [Example 10, 2-(4-(6-(4-chloro-2-fluorobenzyloxy)pyridin-2-yl)benzyl)-1-((tetrahydrofuran-2-yl)methyl)-1H-benzo[d]imidazole-6-carboxylic acid]	0.024	-7.54
COCCn1c(Cc2c(F)cc(-c3cccc(OCc4ccc(Cl)cc4F)n3)cc2F)nc2ccc(C(=O)O)cc21 [Example 37, 2-(4-(6-(4-chloro-2-fluorobenzyloxy)pyridin-2-yl)-2,6-difluorobenzyl)-1-(2-methoxyethyl)-1H-benzo[d]imidazole-6-carboxylic acid]	0.013	-10.6
O=C(O)c1ccc2nc(Cn3cnc(-c4cccc(OCc5ccc(Cl)cc5F)n4)cc3=O)n(CC3CCCO3)c2c1 (centres unmarked) [Example 112, 2-((4-(6-(4-chloro-2-fluorobenzyloxy)pyridin-2-yl)-6-oxopyrimidin-1(6H)-yl)methyl)-1-((tetrahydrofuran-2-yl)methyl)-1H-benzo[d]imidazole-6-carboxylic acid]	0.29	1.14
N#Cc1ccc(COc2cccc(-c3ccc(Cc4nc5ccc(C(=O)O)cc5n4Cc4ccco4)c(F)c3)n2)c(F)c1 [Example 19, 2-(4-(6-(4-cyano-2-fluorobenzyloxy)pyridin-2-yl)-2-fluorobenzyl)-1-(furan-2-ylmethyl)-1H-benzo[d]imidazole-6-carboxylic acid]	0.04	1.8
O=C(O)c1ccc2nc(Cc3ccc(-c4cccc(OCc5ccc(F)c(F)c5)n4)cc3F)n(CC3CCCO3)c2c1 (centres unmarked) [Example 85, 2-(4-(6-(3,4-difluorobenzyloxy)pyridin-2-yl)-2-fluorobenzyl)-1-((tetrahydrofuran-2-yl)methyl)-1H-benzo[d]imidazole-6-carboxylic acid]	0.074	-12.9
O=C(O)c1ccc2nc(Cc3ccc(-c4cccc(OCc5ccc(Br)cc5F)n4)cc3F)n(CC3CCCO3)c2c1 (centres unmarked) [Example 89, 2-(4-(6-(4-bromo-2-fluorobenzyloxy)pyridin-2-yl)-2-fluorobenzyl)-1-((tetrahydrofuran-2-yl)methyl)-1H-benzo[d]imidazole-6-carboxylic acid]	0.011	22.1
Cc1cccc(COc2cccc(-c3ccc(Cc4nc5ccc(C(=O)O)cc5n4CC4CCCO4)cc3F)n2)c1 (centres unmarked) [Example 90, 2-(3-fluoro-4-(6-(3-methylbenzyloxy)pyridin-2-yl)benzyl)-1-((tetrahydrofuran-2-yl)methyl)-1H-benzo[d]imidazole-6-carboxylic acid]	0.25	20.2
O=C(O)c1ccc2nc(Cc3ccc(-c4cccc(OCc5ccccc5)n4)cc3F)n(CC3CCCO3)c2c1 (centres unmarked) [Example 83, 2-(4-(6-(benzyloxy)pyridin-2-yl)-2-fluorobenzyl)-1-((tetrahydrofuran-2-yl)methyl)-1H-benzo[d]imidazole-6-carboxylic acid]	0.16	2.37
O=C(O)c1ccc2nc(Cc3ccc(-c4cccc(OCc5ccc(F)cc5F)n4)c(F)c3)n(C[C@@H]3CCO3)c2c1 [Example 119, (S)-2-(4-(6-((2,4-difluorobenzyl)oxy)pyridin-2-yl)-3-fluorobenzyl)-1-(oxetan-2-ylmethyl)-1H-benzo[d]imidazole-6-carboxylic acid]	0.012	4.13

Further lines, with some results ahead:

EC50 [2] [µM]	Compound	inhibition at 2.5 h, 10 µM [1] [%]
< 0.0032	O=C(O)c1ccc2nc(Cc3ccc(-c4ccc(F)c(OCc5ccc(Cl)cc5F)n4)c(F)c3)n(C[C@@H]3CCO3)c2c1 [Example 117, (S)-2-(4-(6-((4-chloro-2-fluorobenzyl)oxy)-5-fluoropyridin-2-yl)-3-fluorobenzyl)-1-(oxetan-2-ylmethyl)-1H-benzo[d]imidazole-6-carboxylic acid]	12.5
0.12	N#Cc1ccc(COc2cccc(-c3ccc(Cc4nc5ccc(C(=O)O)cc5n4CC4CCCO4)cc3)c2)c(F)c1 (centres unmarked) [Example 8, 2-((3′-(4-cyano-2-fluorobenzyloxy)biphenyl-4-yl)methyl)-1-((tetrahydrofuran-2-yl)methyl)-1H-benzo[d]imidazole-6-carboxylic acid]	4.01
0.21	COc1cccc(COc2cccc(-c3ccc(Cc4nc5ccc(C(=O)O)cc5n4CC4CCCO4)c(F)c3)n2)c1 (centres unmarked) [Example 81, 2-(2-fluoro-4-(6-(3-methoxybenzyloxy)pyridin-2-yl)benzyl)-1-((tetrahydrofuran-2-yl)methyl)-1H-benzo[d]imidazole-6-carboxylic acid]	-43.5
0.028	O=C(O)c1ccc2nc(Cc3ccc(-c4cccc(OCc5ccc(C(F)(F)F)cc5)n4)cc3F)n(CC3CCCO3)c2c1 (centres unmarked) [Example 77, 2-(2-fluoro-4-(6-(4-(trifluoromethyl)benzyloxy)pyridin-2-yl)benzyl)-1-((tetrahydrofuran-2-yl)methyl)-1H-benzo[d]imidazole-6-carboxylic acid]	-70.9
0.13	COCCn1c(Cc2ccc(-c3cccc(OCc4ccc(Cl)cc4F)c3)cc2)nc2ccc(C(=O)O)cc21 [Example 22, 2-((3′-(4-chloro-2-fluorobenzyloxy)biphenyl-4-yl)methyl)-1-(2-methoxyethyl)-1H-benzo[d]imidazole-6-carboxylic acid]	-15.5
0.27	COCCn1c(Cc2ccc(-c3cccc(OCc4ccc(C#N)cc4F)c3)cc2F)nc2ccc(C(=O)O)cc21 [Example 26, 2-((3′-(4-cyano-2-fluorobenzyloxy)-3-fluorobiphenyl-4-yl)methyl)-1-(2-methoxyethyl)-1H-benzo[d]imidazole-6-carboxylic acid]	2.43
< 0.0032	O=C(O)c1ccc2nc(Cc3ccc(-c4cccc(OCc5ccc(Cl)cc5F)n4)c(F)c3)n(C[C@@H]3CCCO3)c2c1 [Example 60, (S)-2-(4-(6-((4-chloro-2-fluorobenzyl)oxy)pyridin-2-yl)-3-fluorobenzyl)-1-((tetrahydrofuran-2-yl)methyl)-1H-benzo[d]imidazole-6-carboxylic acid]	-5.42
0.032	O=C(O)c1ccc2nc(Cc3ccc(-c4cccc(OCc5ccc(Cl)cc5F)c4)cc3F)n(Cc3cnco3)c2c1 [Example 32, 2-((3′-(4-chloro-2-fluorobenzyloxy)-3-fluorobiphenyl-4-yl)methyl)-1-(oxazol-5-ylmethyl)-1H-benzo[d]imidazole-6-carboxylic acid]	-11.7
0.17	N#Cc1ccc(COc2cccc(-c3ccc(Cc4nc5ccc(C(=O)O)cc5n4CCF)cc3F)n2)c(F)c1 [Example 58, 2-(4-(6-(4-cyano-2-fluorobenzyloxy)pyridin-2-yl)-3-fluorobenzyl)-1-(2-fluoroethyl)-1H-benzo[d]imidazole-6-carboxylic acid]	2.81
